Measurements from patent US11414424B2, “Cardiac sarcomere inhibitors” (Cytokinetics, Inc., priority 2018, dated 2022).

These compounds were tested on bovine cardiac myofibrils (assay: Myofibril assay: PK/LDH-coupled steady-state ATPase activity of skinned bovine cardiac myofibrils). Conditions: Ca2+ activating to 75% of maximal rate.
Assay type: biochemical
Procedure: To evaluate the effect of compounds on the ATPase activity of full-length cardiac myosin in the context of the native sarcomere, skinned myofibril assays were performed. Bovine cardiac myofibrils were obtained by homogenizing bovine cardiac left ventricular tissue in the presence of a detergent such as triton X-100. Such treatment removes membranes and a majority of the soluble cytoplasmic proteins but leaves intact the cardiac sarcomeric acto-myosin apparatus. Myofibril preparations retain the ability to hydrolyze ATP in a Ca^2+ regulated manner. ATPase activities of such myofibril preparations in the presence and absence of compounds were assayed at Ca^2+ concentrations activating to a defined fraction of the maximal rate (i.e., […], 75%). Small molecule agents were assessed for their ability to inhibit the steady-state ATPase activity of bovine cardiac myofibrils using pyruvate kinase and lactate dehydrogenase (PK/LDH)-coupled enzyme system. This assay regenerates myosin-produced ADP into ATP by oxidizing NADH, producing an absorbance change at 340 nm. Prior to testing small molecule agents, the bovine cardiac myofibrils were assessed for their calcium responsiveness and the calcium concentration that achieves either a 50% (pCa50) or 75% (pCa75) activation of the myofibril system was chosen as the final condition for assessing the inhibitory activity of the small molecule agents. All enzymatic activity was measured in a buffered solution containing 12 mM PIPES (piperazine-N,N′-bis(2-ethanesulfonic acid), 2 mM magnesium chloride at pH 6.8 (PM 12 buffer). Final assay conditions were 1 mg/mL of bovine cardiac myofibrils, 4 U/mL pyruvate kinase, 6 U/mL lactate dehydrogenase, 50 μM ATP, 0.1 mg/mL BSA (bovine serum albumin), 10 ppm antifoam, 1 mM DTT, 0.5 mM NADH, 1.5 mM PEP, 0.6 mM EGTA, and an amount of CaCl2 sufficient to achieve either 50% or 75% activation of the myofibril ATPase activity. Results for compounds tested are provided in Table A. Compounds tested were prepared in accordance with the synthetic procedures described herein.

Structure (SMILES)	CDMF75 IC15 [µM]
CC(C)N1CC(=O)N(Cc2ccc(Cl)cc2)C(c2ccc(Cl)cc2)C1=O (racemic) [Compound 288, 3-(4-chlorophenyl)-4-[(4-chlorophenyl)methyl]-1-(propan-2-yl)piperazine-2,5-dione]	1.8
CC(=O)NCC1(C)C(=O)N(c2ncc(Cl)cc2F)CC(=O)N1Cc1ccc(C(F)(F)F)cc1 (racemic) [Compound 630, N-((4-(5-chloro-3-fluoropyridin-2-yl)-2-methyl-3,6-dioxo-1-(4-(trifluoromethyl)benzyl)piperazin-2-yl)methyl)acetamide]	18.7
Cc1cnc(N2CC(=O)N(Cc3ccc(C(F)(F)F)cc3)C(C3COC3)C2=O)c(F)c1 (racemic) [Compound 691, 1-(3-fluoro-5-methylpyridin-2-yl)-3-(oxetan-3-yl)-4-(4-(trifluoromethyl)benzyl)piperazine-2,5-dione]	27.6
COc1cnc(N2CC(=O)N(Cc3ccc(C(F)(F)F)cc3)C(C3COC3)C2=O)c(F)c1 (racemic) [Compound 703, 1-(3-fluoro-5-methoxypyridin-2-yl)-3-(oxetan-3-yl)-4-(4-(trifluoromethyl)benzyl)piperazine-2,5-dione]	10.1
CC(C)N1CC(=O)N(Cc2ccc(Cl)cc2)C(c2ccc(Cl)cc2)C1=O (single isomer, unassigned) [Compound 288B, 3-(4-chlorophenyl)-4-[(4-chlorophenyl)methyl]-1-(propan-2-yl)piperazine-2,5-dione]	>39
CC(C)N1CC(=O)N(Cc2ccc(Cl)cc2)C2(CCN(C(N)=O)C2)C1=O (single isomer, unassigned) [Compound 367A, 6-[(4-chlorophenyl)methyl]-7,10-dioxo-9-(propan-2-yl)-2,6,9-triazaspiro[4.5]decane-2-carboxamide]	8.8
CC(C)N1CC(=O)N(Cc2ccc(Cl)cc2)C2(CCN(C(N)=O)C2)C1=O (single isomer, unassigned) [Compound 367B, 6-[(4-chlorophenyl)methyl]-7,10-dioxo-9-(propan-2-yl)-2,6,9-triazaspiro[4.5]decane-2-carboxamide]	>39
CC(C)N1CC(=O)N(Cc2ccc(Cl)cc2)C2(CCN(c3ccccn3)C2)C1=O (single isomer, unassigned) [Compound 373B, 6-[(4-chlorophenyl)methyl]-9-(propan-2-yl)-2-(pyridin-2-yl)-2,6,9-triazaspiro[4.5]decane-7,10-dione]	>39
O=C1CN(c2ccc(Cl)cc2F)C(=O)[C@]2(C[C@@H](O)C2)N1Cc1ccc(C(F)(F)F)cc1 (single isomer, unassigned) [Compound 483B]	0.7
COC(=O)[C@H]1C[C@]2(C1)C(=O)N(c1ccc(C#N)cc1F)CC(=O)N2Cc1ccc(Cl)cc1 (single isomer, unassigned) [Compound 488B]	0.2
N#Cc1ccc(N2CC(=O)N(Cc3ccc(Cl)cc3)[C@]3(C[C@H](C(=O)N4CCC(O)CC4)C3)C2=O)c(F)c1 (single isomer, unassigned) [Compound 492B]	0.4
Cc1nc([C@H]2C[C@]3(C2)C(=O)N(C(C)C)CC(=O)N3Cc2ccc(C(F)(F)F)cc2)oc1C (single isomer, unassigned) [Compound 500B]	35.5
CC(=O)NCC1(C)C(=O)N(c2ncc(Cl)cc2F)CC(=O)N1Cc1ccc(C(F)(F)F)cc1 (single isomer, unassigned) [Compound 630A, N-((4-(5-chloro-3-fluoropyridin-2-yl)-2-methyl-3,6-dioxo-1-(4-(trifluoromethyl)benzyl)piperazin-2-yl)methyl)acetamide]	9.7
CC(=O)NCC1(C)C(=O)N(c2ncc(Cl)cc2F)CC(=O)N1Cc1ccc(C(F)(F)F)cc1 (single isomer, unassigned) [Compound 630B, N-((4-(5-chloro-3-fluoropyridin-2-yl)-2-methyl-3,6-dioxo-1-(4-(trifluoromethyl)benzyl)piperazin-2-yl)methyl)acetamide]	>39
Cc1cnc(N2CC(=O)N(Cc3ccc(C(F)(F)F)cc3)C(C3COC3)C2=O)c(F)c1 (single isomer, unassigned) [Compound 691A, 1-(3-fluoro-5-methylpyridin-2-yl)-3-(oxetan-3-yl)-4-(4-(trifluoromethyl)benzyl)piperazine-2,5-dione]	12.06
Cc1cnc(N2CC(=O)N(Cc3ccc(C(F)(F)F)cc3)C(C3COC3)C2=O)c(F)c1 (single isomer, unassigned) [Compound 691B, 1-(3-fluoro-5-methylpyridin-2-yl)-3-(oxetan-3-yl)-4-(4-(trifluoromethyl)benzyl)piperazine-2,5-dione]	>39
COc1cnc(N2CC(=O)N(Cc3ccc(C(F)(F)F)cc3)C(C3COC3)C2=O)c(F)c1 (single isomer, unassigned) [Compound 703A, 1-(3-fluoro-5-methoxypyridin-2-yl)-3-(oxetan-3-yl)-4-(4-(trifluoromethyl)benzyl)piperazine-2,5-dione]	4.0
COc1cnc(N2CC(=O)N(Cc3ccc(C(F)(F)F)cc3)C(C3COC3)C2=O)c(F)c1 (single isomer, unassigned) [Compound 703B, 1-(3-fluoro-5-methoxypyridin-2-yl)-3-(oxetan-3-yl)-4-(4-(trifluoromethyl)benzyl)piperazine-2,5-dione]	37.2
O=C1C(C2CC(O)C2)N(Cc2ccc(C(F)(F)F)cc2)C(=O)CN1c1ncc(Cl)cc1F (single isomer, unassigned) [Compound 740A, 1-(5-chloro-3-fluoropyridin-2-yl)-3-(3-hydroxycyclobutyl)-4-(4-(trifluoromethyl)benzyl)piperazine-2,5-dione]	1.1
O=C1C(C2CC(O)C2)N(Cc2ccc(C(F)(F)F)cc2)C(=O)CN1c1ncc(Cl)cc1F (single isomer, unassigned) [Compound 740B, 1-(5-chloro-3-fluoropyridin-2-yl)-3-(3-hydroxycyclobutyl)-4-(4-(trifluoromethyl)benzyl)piperazine-2,5-dione]	0.97
O=C1C(C2CC(O)C2)N(Cc2ccc(C(F)(F)F)cc2)C(=O)CN1c1ncc(Cl)cc1F (single isomer, unassigned) [Compound 740C, 1-(5-chloro-3-fluoropyridin-2-yl)-3-(3-hydroxycyclobutyl)-4-(4-(trifluoromethyl)benzyl)piperazine-2,5-dione]	>39
O=C1C(C2CC(O)C2)N(Cc2ccc(C(F)(F)F)cc2)C(=O)CN1c1ncc(Cl)cc1F (single isomer, unassigned) [Compound 740D, 1-(5-chloro-3-fluoropyridin-2-yl)-3-(3-hydroxycyclobutyl)-4-(4-(trifluoromethyl)benzyl)piperazine-2,5-dione]	>39
O=C1C(CO)N(Cc2ccc(C(F)(F)F)cc2)C(=O)CN1c1ncc(Cl)cc1F (single isomer, unassigned) [Compound 857A, 1-(5-chloro-3-fluoropyridin-2-yl)-3-(hydroxymethyl)-4-(4-(trifluoromethyl)benzyl)piperazine-2,5-dione]	5.3
O=C1C(CO)N(Cc2ccc(C(F)(F)F)cc2)C(=O)CN1c1ncc(Cl)cc1F (single isomer, unassigned) [Compound 857B, 1-(5-chloro-3-fluoropyridin-2-yl)-3-(hydroxymethyl)-4-(4-(trifluoromethyl)benzyl)piperazine-2,5-dione]	>39
CCOC(=O)C1CC2(C1)C(=O)N(c1ncc(Cl)cc1F)CC(=O)N2Cc1ccc(C(F)(F)F)cc1 (single isomer, unassigned) [Compound 859A, ethyl 8-(5-chloro-3-fluoropyridin-2-yl)-6,9-dioxo-5-(4-(trifluoromethyl)benzyl)-5,8-diazaspiro[3.5]nonane-2-carboxylate]	0.6
CCOC(=O)C1CC2(C1)C(=O)N(c1ncc(Cl)cc1F)CC(=O)N2Cc1ccc(C(F)(F)F)cc1 (single isomer, unassigned) [Compound 859B, ethyl 8-(5-chloro-3-fluoropyridin-2-yl)-6,9-dioxo-5-(4-(trifluoromethyl)benzyl)-5,8-diazaspiro[3.5]nonane-2-carboxylate]	0.3
O=C1C(C2COC2)N(Cc2ccc(C(F)(F)F)cc2)C(=O)CN1c1ncc(Cl)cc1F (single isomer, unassigned) [Compound 861B, 1-(5-chloro-3-fluoropyridin-2-yl)-3-(oxetan-3-yl)-4-(4-(trifluoromethyl)benzyl)piperazine-2,5-dione]	5.8
O=C1C(C2CC(O)C2)N(Cc2ccc(F)cc2)C(=O)CN1c1ccc(Cl)cc1F (single isomer, unassigned) [Compound 866A, 1-(4-chloro-2-fluorophenyl)-4-(4-fluorobenzyl)-3-(3-hydroxycyclobutyl)piperazine-2,5-dione]	4.4
